Measurements from patent US8552067B2, “Macromolecular conjugates of cystic fibrosis transmembrane conductance regulator protein inhibitors and uses therefor” (The Regents of the University of California, priority 2006, dated 2013).
Structures can show the parent of a compound that is named as a salt.

Columns and labels:
wildtype CFTR [1] = molecular target: T1, wildtype CFTR (Homo sapiens, UniProt P13569); assay: Whole-cell patch-clamp on FRT cells stably expressing wildtype CFTR; conditions: after stepping membrane potential to +80 mV; MalH-ConA 250 nM, GlyH-101 5 μM
CFTR = molecular target: T2, CFTR (Homo sapiens, UniProt P13569); assay: Reversibility of CFTR chloride current inhibition after washout; assay type: cell-based; conditions: after 95-100% inhibition; MalH-ConA over six hours
T2 construct: expressed in transfected cells; host or cells: Fischer rat thyroid (FRT) cells
Method: Chloride current increased slowly with incubation time, with 50% ‘reversal’ at approximately 8 h.

wildtype CFTR [2] = molecular target: T1, wildtype CFTR; assay: Apical membrane chloride current (short-circuit current) in FRT epithelial cells expressing human wildtype CFTR
[3] = Water solubility (statement); assay type: physicochemical

T1 sequence (P13569 whole entry): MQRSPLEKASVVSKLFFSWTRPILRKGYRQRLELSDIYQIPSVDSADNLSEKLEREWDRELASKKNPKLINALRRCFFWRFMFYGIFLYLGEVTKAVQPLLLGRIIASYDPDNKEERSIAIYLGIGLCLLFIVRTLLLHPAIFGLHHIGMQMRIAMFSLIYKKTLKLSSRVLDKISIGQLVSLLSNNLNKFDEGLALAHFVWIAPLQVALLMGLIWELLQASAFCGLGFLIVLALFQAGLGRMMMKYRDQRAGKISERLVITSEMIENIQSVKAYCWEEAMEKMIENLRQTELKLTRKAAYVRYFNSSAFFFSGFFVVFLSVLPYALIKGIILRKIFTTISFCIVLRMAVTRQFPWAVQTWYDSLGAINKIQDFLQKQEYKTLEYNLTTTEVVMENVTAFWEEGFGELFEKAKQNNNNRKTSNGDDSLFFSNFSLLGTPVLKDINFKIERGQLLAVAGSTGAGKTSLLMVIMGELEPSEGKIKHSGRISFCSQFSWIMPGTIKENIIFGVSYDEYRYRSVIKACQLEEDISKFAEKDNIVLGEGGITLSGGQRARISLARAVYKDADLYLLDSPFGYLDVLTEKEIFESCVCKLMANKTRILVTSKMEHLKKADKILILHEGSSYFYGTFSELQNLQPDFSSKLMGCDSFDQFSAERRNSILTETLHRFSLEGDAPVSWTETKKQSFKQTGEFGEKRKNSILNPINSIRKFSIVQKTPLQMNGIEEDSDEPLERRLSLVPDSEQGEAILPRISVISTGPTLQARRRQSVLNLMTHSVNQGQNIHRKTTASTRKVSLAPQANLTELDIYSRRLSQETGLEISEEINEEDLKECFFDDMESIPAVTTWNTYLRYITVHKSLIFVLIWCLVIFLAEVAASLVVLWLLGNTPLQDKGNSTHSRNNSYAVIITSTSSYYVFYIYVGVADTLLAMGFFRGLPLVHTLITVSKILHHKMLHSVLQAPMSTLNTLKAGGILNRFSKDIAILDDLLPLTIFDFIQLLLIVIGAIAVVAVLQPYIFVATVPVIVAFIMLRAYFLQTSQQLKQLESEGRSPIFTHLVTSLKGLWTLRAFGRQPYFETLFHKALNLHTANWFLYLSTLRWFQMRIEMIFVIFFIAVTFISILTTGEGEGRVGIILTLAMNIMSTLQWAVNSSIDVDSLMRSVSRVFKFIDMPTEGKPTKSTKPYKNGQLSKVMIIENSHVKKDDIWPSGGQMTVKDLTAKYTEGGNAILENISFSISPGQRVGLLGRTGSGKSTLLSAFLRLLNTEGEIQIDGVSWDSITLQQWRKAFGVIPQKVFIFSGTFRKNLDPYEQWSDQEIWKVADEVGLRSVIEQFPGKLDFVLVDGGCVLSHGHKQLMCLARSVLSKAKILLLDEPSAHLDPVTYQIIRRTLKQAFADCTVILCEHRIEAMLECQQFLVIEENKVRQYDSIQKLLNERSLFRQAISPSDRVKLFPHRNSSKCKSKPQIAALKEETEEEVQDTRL
T2 sequence (P13569 whole entry): as above

Row | time constant of current decay (single exponential) (wildtype CFTR [1]) [ms] | SMILES | reversal of CFTR inhibition after washout and forskolin re-addition (CFTR) | IC50 (wildtype CFTR [2]) [µM] | effect of mannose on CFTR inhibitory potency (wildtype CFTR [2]; 200 mM mannose) | effect of heat denaturation on CFTR inhibition activity (wildtype CFTR [2]; 100° C. for 5 min) | effect of EDTA on CFTR inhibition potency (wildtype CFTR [2]; EDTA in buffer (chelation of Ca2+ and Mg2+)) | effect of excess unconjugated ConA on CFTR inhibition potency (wildtype CFTR [2]; excess ConA (5 μM) added before compound) | effect of acid incubation on capability to inhibit CFTR (wildtype CFTR [2]; incubation at either pH 1.5 or pH 5.2) | CFTR inhibition after pronase treatment (wildtype CFTR [2]; pronase 8 hours, pH 8, 37° C.) | water solubility [3]
1 | 8 to 10 | O=C(CNc1ccc2ccccc2c1)NN=Cc1cc(Br)c(O)c(Br)c1O [GlyH-101, N^2-naphthalenyl-[3,5-[dibromo-2,4-dihydroxyphenyl)methylene]glycine hydrazide] | – | – | – | – | – | – | – | – | –
2 | – | O=C(NN=Cc1cc(Br)c(O)c(Br)c1)C(Nc1ccc2ccccc2c1)C(=O)NNC(=S)Nc1ccc(C=Cc2ccc(N=C=S)cc2S(=O)(=O)O)c(S(=O)(=O)O)c1 (stereo not shown) [MalH-DIDS, 2-naphthalenylamino-[(3,5-dibromo-4-dihydroxyphenyl)methylene]hydrazide [[[4-[2-(4-isothiocyanato-2-sulfophenypethenyl]-2-sulfophenyl]amino]thioxomethyl]hydrazide-propanedioic acid, disodium salt] | Near-complete and rapid reversal | 1 | did not affect | did not affect | did not affect | did not affect | did not affect | not affected | highly water soluble
